According to patent US10617701B2, “Nutritional compositions containing phosphatidylethanolamine, sphingomyelin and docosahexaenoic acid” (Mead Johnson Nutrition Company, priority 2015, dated 2020):

What was measured:
[1] = test system: embryonic mouse cortical cells; assay: Functional neuronal maturation of cortical networks on microelectrode arrays (MEA recording, chronic treatment); format: cell-based; conditions: for acute effect on neuronal network activity in vitro: cortical networks on MEAs
Experimental: Cortical cells were grown on multi-well microelectrode arrays (MEAs) and treated with 10 different experimental series, including different combinations of test agents (PE, SM, LF and DHA) and the activity was recoded at 4 different time points during the 4 weeks of functional neuronal maturation Cells growing on glass slides were treated in parallel for morphological and cell population analysis. These experiments aimed to elucidate whether the test compounds affect the functional and morphological neuronal maturation […] (see FIG. 1).
All experiments were performed according to the standard operating protocols (SOPs): “SOP Preparation Frontal Cortex Mouse—Serum,” “SOP Solutions for Neuronal Cell Culture,” “SOP Cleaning and Substrate Preparations of MEAs,” “SOP Feeding neuronal cell culture,” “SOP Cell culture preparation MEAs,” “SOP Plexon Recording,” “SOP Plexon Data Analysis.”
Microelectrode Array Neurochips: THE MEA neurochips were provided by the Center for Network Neuroscience (CNNS) at the University of North Texas. These 5×5 cm^2 glass chips have a dual recording matrix with 32 passive electrodes per matrix and indium tin oxide conductors. The hydrophobic insulation material surface was activated by a brief butane flame pulse through a stainless steel mask. Thus, cell attachment on a confined adhesive region (5 mm diameter centered on the electrode array) is ensured. The activated surface regions were coated with poly-D-lysine (25 microgram/mL; 30-70 kD) and incubated overnight. […]
Primary cell culture for MEA recordings: In brief, frontal cortex tissue was harvested from embryonic day […] NMRI mice. […] Cultures on MEAs were incubated at 37° C. in a 10% CO2 atmosphere until ready for use, which usually is four weeks to three months after seeding. […]
Multichannel Recording: After establishing a stable activity pattern after 4 weeks, the neuronal networks on MEA chips are employed for substance testing. […] The signals routinely recorded by these neurochips are located in a range of 15-1800 […] . […]

[2] = test system: embryonic mouse cortical cells; assay: Immunocytochemistry / fluorescence image analysis of neuronal network morphology (neuron number, % neurons, synaptic density); format: cell-based; conditions: chronic treatment over 4 weeks
Experimental: Primary Cell culture for immunocytochemistry and Fluorescence staining: The chronically treated cultures were grown on 24-well plates on 13 mm glass cover slides and cultured with PNGM medium including 5% FCS and gentamycin+ampicillin. The cells were treated 2× per week during ⅓ medium exchange. The complete concentration of phospholipids was replenished every time.
Immunocytochemistry and Fluorescence staining: These 24 well-plate cultures were analyzed by immunocytochemistry, fluorescence microscopy and semiautomatic quantitative image analysis at 7, 14, 21, and 28 days. […] Cortical networks were embedded with Prolong anti-fade gold (Invitrogen, Darmstadt, Germany) and images acquired with an upright fluorescence microscope (Nikon Eclipse TE200, NikonAG, Tokyo, Japan).
Image analysis: These images were analyzed by semi-automatic image quantification tools (MS Excel macro-based in house analyses; ImageJ, Rawak Software, NIH, USA). […]
The repeated treatment with LF+PE+SM+DHA affects development of neuronal network morphology: The recorded networks were fixed after the final 28 div recording and immunostained for neuronal markers. Images were taken and the cell neuronal numbers quantified by semi-automatic image analyses.

Substance | acute effect on neuronal network activity in vitro [1] | synaptic density [2] | developmental halt at later stages ([1]; repeated treatment 2x per week, DHA 20 μM, PE 100 nM, LF 300 nM, SM 100 nM, recorded at 7-10, 14, 21 and 28 div, FIG. 2)
phosphatidylethanolamine [PE] | acutely affect neuronal network activity | – | –
sphingomyelin [SM] | acutely affect neuronal network activity | able to increase the synaptic density | developmental halt at later stages
